Results from patent US5212187A, “Pyridyl alkylamine compounds which are useful against histamine H1 and H2 receptors” (Zyma SA, priority 1991, dated 1993).

How the values were obtained:
[1] = target: T1, histamine H2 -receptors (Cavia porcellus, UniProt P47747); test: in vitro histamine H2-antagonism on isolated spontaneously beating guinea pig right atrium; conditions: cumulative concentration/action curves (van Rossum), read-out: H2 -antagonism atrium -log KB (converted)
T1 construct: isolated spontaneously beating guinea pig right atrium (H2); from tissue; host or cells: isolated spontaneously beating guinea pig right atrium
T1 sequence (P47747 whole entry): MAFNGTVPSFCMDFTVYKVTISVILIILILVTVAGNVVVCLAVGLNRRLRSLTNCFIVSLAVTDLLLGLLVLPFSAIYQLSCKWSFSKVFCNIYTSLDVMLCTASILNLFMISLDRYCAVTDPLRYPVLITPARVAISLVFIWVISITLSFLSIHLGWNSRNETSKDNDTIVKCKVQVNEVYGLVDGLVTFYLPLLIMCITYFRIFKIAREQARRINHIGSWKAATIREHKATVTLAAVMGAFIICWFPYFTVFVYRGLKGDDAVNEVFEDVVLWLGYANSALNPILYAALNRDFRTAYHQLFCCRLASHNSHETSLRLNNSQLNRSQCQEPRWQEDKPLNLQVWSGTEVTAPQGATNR
Source text: (§1) The compounds of formula I according to the invention are distinguished by a novel overall pharmacological activity that has not been described hitherto. […] Suitable for differentiating the two types of action are, for example, in vitro tests on isolated spontaneously beating guinea pig right atrium (H2) and on isolated guinea pig ileum (H1) (Black, J. W.; Duncan, W. A. M.; Durant, G. J., Ganellin, C. R.; Parsons, M. E. (1972), "Definition and Antagonism of Histamine H2 -receptors", Nature 236, 385-390). The concentration/action curves for determining the pharmacological parameters (-log KB) are recorded using a cumulative technique according to van Rossum, J. M. (1963), "Cumulative Dose-Response Curves. II. Technique for the Making of Dose-Response Curves in Isolated Organs and the Evaluation of Drug Parameters", Arch. Int. Pharmacodyn. Ther. 143, 299-307.
(§2) (determined from isolated guinea pig ileum and atrium, […]

[2] = target: T2, histamine H1 -receptors (Cavia porcellus, UniProt P31389); test: in vitro histamine H1-antagonism on isolated guinea pig ileum; conditions: cumulative concentration/action curves (van Rossum), read-out: H1 -antagonism ileum -log KB (converted)
T2 construct: isolated guinea pig ileum (H1); from tissue; host or cells: isolated guinea pig ileum
T2 sequence (P31389 whole entry): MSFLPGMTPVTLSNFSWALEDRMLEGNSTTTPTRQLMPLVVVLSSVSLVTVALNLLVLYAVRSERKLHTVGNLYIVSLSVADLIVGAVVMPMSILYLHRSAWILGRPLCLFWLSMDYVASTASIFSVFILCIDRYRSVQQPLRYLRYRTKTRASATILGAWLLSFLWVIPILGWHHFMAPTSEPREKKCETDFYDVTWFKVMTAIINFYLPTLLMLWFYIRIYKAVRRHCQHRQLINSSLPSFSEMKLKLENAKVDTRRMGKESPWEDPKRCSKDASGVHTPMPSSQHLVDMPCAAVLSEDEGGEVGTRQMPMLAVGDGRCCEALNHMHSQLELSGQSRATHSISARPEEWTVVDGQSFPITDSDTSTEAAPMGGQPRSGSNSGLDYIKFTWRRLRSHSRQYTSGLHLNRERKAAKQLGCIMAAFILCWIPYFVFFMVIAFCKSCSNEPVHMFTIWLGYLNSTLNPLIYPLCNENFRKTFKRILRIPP
Source text: as §1, §2

| SMILES | Kb [1] [nM] | Kb [2] [nM] |
| --- | --- | --- |
| CN(CCCCCCNC(=O)NCCSCc1csc(NC(=N)N)n1)CCC(c1ccc(Cl)cc1)c1ccccn1 (stereo not drawn) [Example 37, N-[6-[N-[3-(4-chlorophenyl)-3-(2-pyridyl)propyl]-N-methylamino]hexyl]-N'-[2-[[(2-guanidino-4-thiazolyl)methyl]thio]ethyl]urea] | 123 | 7.41 |
| Cc1[nH]cnc1CSCCNC(=O)NCCCN(C)CCC(c1ccc(Cl)cc1)c1ccccn1 (stereo not drawn) [Example 50, N-[3-[N-[3-(4-chlorophenyl)-3-(2-pyridyl)propyl]-N-methylamino]propyl]-N'-[2-[[(5-methylimidazol-4-yl)methyl]thio]ethyl]urea] | 6460 | 7.08 |
| CN(CCCNC(=O)NCCCOc1cccc(CN2CCCCC2)c1)CCC(c1ccc(F)cc1)c1ccccn1 (stereo not drawn) [Example 30, N-[3-[N-[3-(4-fluorophenyl)-3-(2-pyridyl)propyl]-N-methylamino]propyl]-N'-[3-[3-(piperidinomethyl)phenoxy]propyl]urea] | 209 | 6.17 |
| CN(CCCCCCCNC(=NCCSCc1csc(NC(=N)N)n1)NC#N)CCN(Cc1ccc(F)cc1)c1ccccn1 [Example 85, N-cyano-N'-[7-[N-[2-[N-(4-fluorobenzyl)-N-(2-pyridyl)amino]ethyl]-N-methylamino]heptyl]-N"-[2-[[(2-guanidino-4-thiazolyl)methyl]thio]ethyl]guanidine] | 95.5 | 7.08 |
| CN(CCCCCCCNC(=S)NCCSCc1csc(NC(=N)N)n1)CCC(c1ccc(Cl)cc1)c1ccccn1 (stereo not drawn) [Example 48, N-[7-[N-[3-(4-chlorophenyl)-3-(2-pyridyl)propyl]-N-methylamino]heptyl]-N'-[2-[[(2-guanidino-4-thiazolyl)methyl]thio]ethyl]thiourea] | 60.3 | 20 |
| CN(CCCCCCCCNC(=O)NCCSCc1csc(NC(=N)N)n1)CCC(c1ccc(Cl)cc1)c1ccccn1 (stereo not drawn) [Example 35, N-[8-[N-[3-(4-chlorophenyl)-3-(2-pyridyl)propyl]-N-methylamino]octyl]-N'-[2-[[(2-guanidino-4-thiazolyl)methyl]thio]ethyl]urea] | 39.8 | 13.8 |
| CC(C1=C(CCN(C)CCCCCCNC(=C[N+](=O)[O-])NCCSCc2csc(N=C(N)N)n2)Cc2ccccc21)c1ccccn1 (stereo not drawn) [Example 105, N-[2-[[(2-guanidino-4-thiazolyl)methyl]thio]ethyl]-N'-[6-[N-methyl-N-[2-[1-(2-pyridyl)ethyl]inden-2-yl]ethylamino]hexyl]-2-nitro-1,1-ethenediamine] | 28.8 | 36.3 |
| CN(CCCCCNC(=NCCSCc1csc(NC(=N)N)n1)NC#N)CCC(c1ccc(Cl)cc1)c1ccccn1 (stereo not drawn) [Example 18, N-[5-[N-[3-(4-chlorophenyl)-3-(2-pyridyl)propyl]-N-methylamino]pentyl]-N'-cyano-N"-[2-[[(2-guanidino-4-thiazolyl)methyl]thio]ethyl]guanidine] | 126 | 3.72 |
| CN(C)Cc1ccc(CSCCNC(=O)NCCCCN(C)CCN(Cc2ccc(F)cc2)c2ccccn2)o1 [Example 103, N-[2-[[5-[(dimethylamino)methyl]furfuryl]thio]ethyl]-N'-[4-[N-[2-[N-(4-fluorobenzyl)-N-(2-pyridyl)amino]ethyl]-N-methylamino]butyl]urea] | 1200 | 24.5 |
